This is an account of results in ChEMBL document CHEMBL1129173, “New class of potent ligands for the human peripheral cannabinoid receptor” (Bioorg Med Chem Lett, 1996).

Usually Ki stands for the dissociation constant of the complex between target and ligand, obtained from inhibition or displacement.

The target in one experiment is Cannabinoid receptor 1 (Homo sapiens, UniProt P21554). The experiment can be described thus: Evaluated for binding affinity against recombinant human central cannabinoid receptor 1.
Sequence of Cannabinoid receptor 1 (P21554 whole entry): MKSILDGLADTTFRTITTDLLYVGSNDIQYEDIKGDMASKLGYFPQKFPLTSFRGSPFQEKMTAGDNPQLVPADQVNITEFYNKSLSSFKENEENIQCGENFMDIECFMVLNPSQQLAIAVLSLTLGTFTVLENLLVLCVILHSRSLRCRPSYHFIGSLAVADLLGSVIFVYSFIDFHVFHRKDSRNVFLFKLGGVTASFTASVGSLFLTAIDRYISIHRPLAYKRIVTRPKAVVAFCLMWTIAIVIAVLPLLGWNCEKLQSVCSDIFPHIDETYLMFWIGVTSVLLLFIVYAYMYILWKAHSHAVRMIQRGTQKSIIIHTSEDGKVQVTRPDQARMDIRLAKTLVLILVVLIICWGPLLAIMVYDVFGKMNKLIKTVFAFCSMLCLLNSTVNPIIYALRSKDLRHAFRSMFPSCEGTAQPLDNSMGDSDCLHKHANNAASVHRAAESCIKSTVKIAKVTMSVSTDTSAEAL
Another experiment has as its target Cannabinoid receptor 2 (Homo sapiens, UniProt P34972). Kind of experiment: Evaluated for binding affinity against recombinant human peripheral cannabinoid receptor 2.

Sequence of Cannabinoid receptor 2 (P34972 whole entry): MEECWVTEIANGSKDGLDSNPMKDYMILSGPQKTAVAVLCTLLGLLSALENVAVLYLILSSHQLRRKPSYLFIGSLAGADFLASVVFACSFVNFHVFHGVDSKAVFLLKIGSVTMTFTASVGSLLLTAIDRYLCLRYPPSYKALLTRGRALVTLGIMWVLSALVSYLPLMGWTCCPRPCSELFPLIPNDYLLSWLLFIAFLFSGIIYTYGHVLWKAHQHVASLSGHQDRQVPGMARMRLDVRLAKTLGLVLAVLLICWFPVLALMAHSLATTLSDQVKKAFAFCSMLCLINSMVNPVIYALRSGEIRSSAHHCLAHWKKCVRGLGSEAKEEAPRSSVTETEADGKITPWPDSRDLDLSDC

For `Cc1c(C(=O)c2cccc3ccccc23)c2ccccc2n1CCN1CCOCC1`, the Ki at Cannabinoid receptor 1 is 0.638 µM; at Cannabinoid receptor 2, 0.014 µM.

With `COC(=O)Cc1c(C)n(C(=O)c2ccccc2Cl)c2ccc(OC)cc12`, the Ki on Cannabinoid receptor 1 was 1.72 µM; on Cannabinoid receptor 2, 0.397 µM. The matching figures for `Cc1c(CCN2CCOCC2)c2ccccc2n1C(=O)c1cccc2ccccc12`: 2.18 µM and 0.216 µM. The matching figures for `COc1ccc2c(c1)c(CC(=O)N1CCOCC1)c(C)n2C(=O)c1ccc(F)cc1Cl`: 5.57 µM and 0.134 µM. The matching figures for `COc1ccc2c(c1)c(CN1CCOCC1)c(C)n2C(=O)c1cccc(Cl)c1Cl`: 3.36 µM and 0.022 µM.

Consider `COc1ccc2c(c1)c(CC(=O)N1CCOCC1)c(C)n2Cc1cccc(Cl)c1Cl`, for which the Ki on Cannabinoid receptor 1 is over 20 µM; on Cannabinoid receptor 2 it was 1.05 µM. The matching figures for `Cc1c(CN2CCOCC2)c2ccccc2n1-c1cccc2ccccc12`: 6.68 µM and 7.84 µM.

On to `COc1ccc2c(c1)c(CC(=O)N1CCOCC1)c(C)n2C(=O)c1c(Cl)cccc1Cl`, for which the Ki was 2.55 µM at Cannabinoid receptor 1 and 0.059 µM on Cannabinoid receptor 2.

As to `COC(=O)Cc1c(C)n(C(=O)c2cccc3ccccc23)c2ccc(OC)cc12`, the values for the Ki on Cannabinoid receptor 1 and at Cannabinoid receptor 2 were 4.61 µM and 0.142 µM, respectively. For `COc1ccc2c(c1)c(CC(=O)N1CCOCC1)c(C)n2C(=O)c1cccc(Cl)c1Cl` the same measures were 2.04 µM and 0.014 µM.

`COc1ccc2c(c1)c(CCN1CCOCC1)c(C)n2C(=O)c1ccc(Cl)cc1`: the Ki stood at 10.3 µM on Cannabinoid receptor 1 and 0.213 µM at Cannabinoid receptor 2. Regarding `Cc1c(CN2CCOCC2)c2ccccc2n1C(=O)c1cccc2ccccc12`, the Ki at Cannabinoid receptor 1 was 0.877 µM; on Cannabinoid receptor 2, 0.0085 µM. The matching figures for `COC(=O)Cc1c(C)n(C(=O)c2ccc(Cl)cc2)c2ccc(OC)cc12`: over 20 µM and 4.02 µM. Turning to `COc1ccc2c(c1)c(CCN1CCOCC1)c(C)n2C(=O)c1cccc(Cl)c1Cl`, the Ki amounted to 1.92 µM at Cannabinoid receptor 1 and 0.012 µM on Cannabinoid receptor 2.

As for `Cc1c(CCN2CCOCC2)c2ccccc2n1C(=O)c1cccc(Cl)c1Cl`, the Ki on Cannabinoid receptor 1 worked out at 3.19 µM; on Cannabinoid receptor 2, 0.027 µM. For `COc1ccc2c(c1)c(CC(=O)N1CCOCC1)c(C)n2C(=O)c1cccc(Cl)c1` the same measures were 16.8 µM and 0.354 µM. For `COc1ccc2c(c1)c(CC(=O)N1CCOCC1)c(C)n2C(=O)c1ccccc1Cl` the same measures were 3.6 µM and 0.069 µM. Take `COc1ccc2c(c1)c(CC(=O)N1CCOCC1)c(C)n2C(=O)c1ccc(Cl)cc1` [INDOMETHACIN MORPHOLINYLAMIDE]: the Ki on Cannabinoid receptor 1 was over 20 µM; on Cannabinoid receptor 2, 0.435 µM. Consider `COc1ccc2c(c1)c(CC(=O)O)c(C)n2C(=O)c1ccc(Cl)cc1` [INDOMETHACIN], for which, on Cannabinoid receptor 2, the Ki is over 20 µM.
